In general, inhibition refers to how much of the control response was suppressed. The IC50 is the concentration at which inhibition is half-maximal. One may read the CC50 as the concentration giving 50% cytotoxicity. A high value points to better tolerance by the cells. As a reminder, the Ki is the dissociation constant of the complex between target and ligand, obtained from inhibition or displacement.

Data on 13 compounds can be found in article PMC10620162, “Structure—yeast α-glucosidase inhibitory activity relationship of 9-O-berberrubine carboxylates” (Scientific Reports, 2023).

Read-outs that look alike come from different tables or passages of the source.

Details of series [1]: method as in doi:10.2217/clp.09.41, PMID 16956957. The note with it: cited from earlier work.
The subject of a further series is HepG2 cells. Also noted: method as in PMID 27561717. The note with it: cited from earlier work; for glucose consumption (GC): HepG2 cells ref 29.
Details of series [2]: method as in PMID 27020531. The note with it: at 20 °C ref 19; cited from earlier work.
Series [3] has as its target T1, yeast α-glucosidase (Saccharomyces cerevisiae, UniProt P53341).
T1 construct: purchased Sigma Aldrich
The series is described as follows: biochemical. The note with it: for inhibition at 50 µM: read-out: Inhibition at 50 μM (%), 50 μM. As for the experimental part:
Berberrubine derivatives will be assayed for yeast α-glucosidase inhibitory activity. The protocol described by Ramadhan et al. will be used[37]. Briefly, yeast α-glucosidase (0.1 U/mL) and substrate (1 mM p-nitrophenyl-α-D-glucopyranoside) were dissolved in 0.1 M phosphate buffer (pH 6.9). A 10 μL test sample was pre-incubated with α-glucosidase (40 μL) at 37 °C for 10 min. A substrate solution (50 μL) was then added to the reaction mixture and incubated at 37 °C for an additional 20 min, and terminated by adding 1 M Na2CO3 solution (100 μL). […] The percentage inhibition of activity was calculated as follows: % Inhibition = [(A0 − A1)/A0] × 100, where: A0 is the absorbance without the sample; A1 is the absorbance with the sample. The IC50 value was deduced from the plot of % inhibition versus the concentration of the test sample.

The nature of series [4]: cytotoxicity study with HEK-293 cells (CellTiter 96 AQueous One). In kind it is cell-based. The note with it: human. As for the experimental part: HEK-293 cells (ATCC® CRL-1573™) were maintained in growth medium consisting of DMEM (Gibco®, Langley, OK) supplemented with 10% fetal bovine serum (Gibco®, Langley, OK), 100 I.U./ml penicillin (Bio Basic Canada®, Ontario, CA), 100 μg/ml streptomycin (Bio Basic Canada®, Ontario, CA), and 10 mM HEPES (4-(2-hydroxyethyl)-1-piperazineethanesulfonic acid) (Sigma Aldrich®, St. Louis, MO) at 37 °C under 5% CO2.
The cytotoxicity of the active compounds (9, 26, 28 and 33) was tested with HEK-293 cells. The cells were seeded at 1 × 10^4 cells per well into 96-well plates in growth medium and incubated overnight. The compounds were prepared at the indicated concentrations in dimethylsulfoxide (DMSO) and added to the cells. Cells were incubated for 48 h before analyzing the cell viability using CellTiter 96® AQueous One Solution Cell Proliferation Assay kit (Promega, USA) according to manufacturer’s protocol. The plate was read at the A490 by VICTORTM X3 microplate reader (PerkinElmer, USA). The 1%DMSO treated cells as a positive control (100% viability). The CC50 values were calculated from nonlinear regression analysis. Results were reported as means and standard error mean (SEM) from three biological independent experiments.

Series [5] addresses T1, yeast α-glucosidase. In words: kinetic study of α-glucosidase inhibition (Lineweaver–Burk plots). In kind it is biochemical. The note with it: for inhibition type: Lineweaver–Burk plot analysis. As for the experimental part: To further investigate how these 9-O-berberrubine carboxylates interact with yeast α-glucosidase, the inhibition types of four potential compounds, 9, 26, 28 and 33 were studied by using Lineweaver–Burk plot analysis.
The mode of inhibition of α-glucosidase was determined from Lineweaver–Burk plots. The inhibition type was determined using various concentrations of p-NPG substrate in the absence or presence of compounds at different concentrations. The Ki value was determined from secondary plots of slope versus [I].

The target in series [6] is yeast α-glucosidase. Set-up: method as in PMID 26917220. The note with it: cited from earlier work.

T1 sequence (P53341 whole entry): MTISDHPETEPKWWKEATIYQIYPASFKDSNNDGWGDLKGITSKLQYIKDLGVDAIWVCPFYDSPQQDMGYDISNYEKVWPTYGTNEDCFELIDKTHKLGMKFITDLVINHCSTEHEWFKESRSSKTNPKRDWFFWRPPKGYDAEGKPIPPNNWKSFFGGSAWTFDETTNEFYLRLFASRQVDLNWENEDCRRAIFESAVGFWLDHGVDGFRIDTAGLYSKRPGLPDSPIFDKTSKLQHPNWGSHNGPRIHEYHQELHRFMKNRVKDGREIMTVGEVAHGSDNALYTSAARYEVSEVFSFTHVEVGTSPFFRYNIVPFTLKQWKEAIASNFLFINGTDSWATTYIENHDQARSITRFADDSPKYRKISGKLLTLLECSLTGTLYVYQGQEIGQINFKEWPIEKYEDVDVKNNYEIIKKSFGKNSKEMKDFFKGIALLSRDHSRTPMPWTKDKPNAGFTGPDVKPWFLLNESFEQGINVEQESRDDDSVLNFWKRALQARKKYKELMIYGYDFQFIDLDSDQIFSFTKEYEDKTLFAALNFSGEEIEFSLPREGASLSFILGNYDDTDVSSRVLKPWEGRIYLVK

Regarding `COc1ccc2cc3[n+](cc2c1OC)CCc1cc2c(cc1-3)OCO2` [BBR, Berberine, reference compound], the bioavailability entry in series [1] is “less than 5%”. The “glucose consumption (GC)” value in the series with HepG2 cells is 5.04 mM. For the same compound, in series [2], the aqueous solubility is given as ~ 1.8 mg/mL. At yeast α-glucosidase [3], the inhibition at 50 µM was under 0%.
For `COc1ccc2cc3[n+](cc2c1OC(=O)c1ccccc1OCc1ccccc1)CCc1cc2c(cc1-3)OCO2.[Cl-]` [Compound 9, 9-((2-(benzyloxy)benzoyl)oxy)-10-methoxy-5,6-dihydro-[1,3]dioxolo[4,5-g]isoquinolino[3,2-a]isoquinolin-7-ium chloride], the concentration for half-maximal inhibition (IC50) on yeast α-glucosidase [3] (read-out: IC50) amounted to 2.29 ± 0.08 µM. For the same compound, the inhibition at 50 µM at yeast α-glucosidase [3] was 100%. In series [4], the midpoint of cytotoxicity, the CC50 at 48 h, lay at 30.5 µM. At yeast α-glucosidase [5], the inhibition type entry was “competitive”.
As to `COc1ccc2cc3[n+](cc2c1OC(=O)c1cc(C(C)(C)C)cc(C(C)(C)C)c1)CCc1cc2c(cc1-3)OCO2.[Cl-]` [Compound 26, 9-((3,5-di-tert-butylbenzoyl)oxy)-10-methoxy-5,6-dihydro-[1,3]dioxolo[4,5-g]isoquinolino[3,2-a]isoquinolin-7-ium chloride], at yeast α-glucosidase [3], inhibition was half-maximal at 1.61 ± 0.08 µM (IC50) and the inhibition at 50 µM came to 99.8%. Also, the CC50 at 48 h in series [4] was found to be 18.2 µM. Further, on yeast α-glucosidase [5], affinity was put at a Ki of 10.7 µM and the inhibition type entry is reported as “competitive”.
For the compound `COc1ccc2cc3[n+](cc2c1OC(=O)c1ccc2ccccc2c1)CCc1cc2c(cc1-3)OCO2.[Cl-]` [Compound 28, 9-((2-naphthoyl)oxy)-10-methoxy-5,6-dihydro-[1,3]dioxolo[4,5-g]isoquinolino[3,2-a]isoquinolin-7-ium chloride], the IC50 on yeast α-glucosidase [3] (read-out: IC50) was found to be 2.63 ± 0.23 µM. In addition, the inhibition at 50 µM at yeast α-glucosidase [3] came out at 95.7%. This compound registered a 50% cytotoxic concentration (CC50) at 48 h in series [4] of 20.9 µM. Also, the inhibition type entry on yeast α-glucosidase [5] was “competitive”. The Ki at yeast α-glucosidase [5] (secondary plots of slope versus [I], read-out: inhibition constants (Ki)) turned out to be 25.3 µM.
`COc1ccc2cc3[n+](cc2c1OC(=O)C=Cc1ccccc1)CCc1cc2c(cc1-3)OCO2.[Cl-]` [Compound 29, 9-(cinnamoyloxy)-10-methoxy-5,6-dihydro-[1,3]dioxolo[4,5-g]isoquinolino[3,2-a]isoquinolin-7-ium chloride]: the “glucose consumption (GC)” value in the series with HepG2 cells is listed as 6.73 mM. Moreover, in the series with HepG2 cells (compared with berberine ref 29), the cytotoxicity entry was “lower than berberine”. On yeast α-glucosidase [3], the IC50 was found to be 15.1 ± 0.6 µM and the inhibition at 50 µM stood at 88.5%.
For `COc1ccc2cc3[n+](cc2c1OC(=O)/C(C)=C/c1ccccc1)CCc1cc2c(cc1-3)OCO2` [Compound 30, (E)-10-methoxy-9-((2-methyl-3-phenylacryloyl)oxy)-5,6-dihydro-[1,3]dioxolo[4,5-g]isoquinolino[3,2-a]isoquinolin-7-ium chloride], at yeast α-glucosidase [3], the IC50 turned out to be 10.3 ± 0.84 µM and the inhibition at 50 µM was 91.9%.
With `COc1ccc2cc3[n+](cc2c1OC(=O)/C=C/c1ccc2c(c1)OCO2)CCc1cc2c(cc1-3)OCO2` [Compound 31, (E)-9-((3-(benzo[d][1,3]dioxol-5-yl)acryloyl)oxy)-10-methoxy-5,6-dihydro-[1,3]dioxolo[4,5-g]isoquinolino[3,2-a]isoquinolin-7-ium chloride], on yeast α-glucosidase [3] (read-out: IC50), the IC50 stood at 4.64 ± 0.55 µM. The inhibition at 50 µM on yeast α-glucosidase [3] was determined as 98.9%.
As for `COc1ccc2cc3[n+](cc2c1OC(=O)/C=C/c1c(Cl)cccc1Cl)CCc1cc2c(cc1-3)OCO2` [Compound 32, (E)-9-((3-(2,6-dichlorophenyl)acryloyl)oxy)-10-methoxy-5,6-dihydro-[1,3]dioxolo[4,5-g]isoquinolino[3,2-a]isoquinolin-7-ium chloride], on yeast α-glucosidase [3], the IC50 was found to be 16 ± 0.67 µM and the inhibition at 50 µM worked out at 94.8%.
With `COc1ccc2cc3[n+](cc2c1OC(=O)/C=C/C=C/c1ccc2c(c1)OCO2)CCc1cc2c(cc1-3)OCO2.[Cl-]` [Compound 33, 9-(((2E,4E)-5-(benzo[d][1,3]dioxol-5-yl)penta-2,4-dienoyl)oxy)-10-methoxy-5,6-dihydro-[1,3]dioxolo[4,5-g]isoquinolino[3,2-a]isoquinolin-7-ium chloride], on yeast α-glucosidase [3] (read-out: IC50), the half-inhibitory concentration (IC50) was 1.95 ± 0.06 µM. In addition, on yeast α-glucosidase [3], the inhibition at 50 µM came to 98.7%. In series [4], the CC50 at 48 h was determined as 17.7 µM. Besides, at yeast α-glucosidase [5], the inhibition type result is on record as “competitive”.
As to `COc1ccc2cc3[n+](cc2c1OC(=O)Cc1c(Cl)cccc1Cl)CCc1cc2c(cc1-3)OCO2` [Compound 34, 9-(2-(2,6-dichlorophenyl)acetoxy)-10-methoxy-5,6-dihydro-[1,3]dioxolo[4,5-g]isoquinolino[3,2-a]isoquinolin-7-ium chloride], the IC50 at yeast α-glucosidase [3] (read-out: IC50) is 7.3 ± 0.51 µM. In addition, the inhibition at 50 µM at yeast α-glucosidase [3] came out at 93.9%.
On the same counts, the results for `COc1ccc2cc3[n+](cc2c1OC(=O)C(c1ccccc1)c1ccccc1)CCc1cc2c(cc1-3)OCO2` [Compound 35, 9-(2,2-diphenylacetoxy)-10-methoxy-5,6-dihydro-[1,3]dioxolo[4,5-g]isoquinolino[3,2-a]isoquinolin-7-ium chloride] are 6.19 ± 0.32 µM and 95.2%.
With `O=c1c2ccccc2oc2cc(O)cc(O)c12` [Compound X1, 1,3-dihydroxyxanthone], the IC50 at yeast α-glucosidase [6] was 145 µM.
Take `CC(C)(C)[Si](C)(C)Oc1ccc(C(=O)Oc2cc(O)c3c(=O)c4ccccc4oc3c2)cc1` [Compound X2, 3-Arylacyloxyxanthone]: the IC50 at yeast α-glucosidase [6] was 10.6 µM.
